Laboratory results reported in ChEMBL document CHEMBL1154195, “Synthesis and binding affinity of potential atypical antipsychotics with the tetrahydroquinazolinone motif” (Bioorg Med Chem Lett, 2009).

Assays:
[1] = biological target: 5-hydroxytryptamine receptor 2A (Homo sapiens, UniProt P28223); test: Displacement of [3H]ketanserin from human cloned 5HT2A receptor
Homo sapiens = species: Homo sapiens; test: Ratio of pKi for human cloned 5HT2A receptor to pKi for human cloned dopamine D2 receptor
[2] = biological target: D(2) dopamine receptor (Homo sapiens) (UniProt P14416); test: Displacement of [3H]spiperone from human cloned dopamine D2 receptor at 10 uM
[3] = biological target: T1, 5-hydroxytryptamine receptor 2C (Homo sapiens, UniProt P28335); test: Displacement of [3H]mesulergine from human 5HT2C receptor
T1 sequence (P28335 whole entry): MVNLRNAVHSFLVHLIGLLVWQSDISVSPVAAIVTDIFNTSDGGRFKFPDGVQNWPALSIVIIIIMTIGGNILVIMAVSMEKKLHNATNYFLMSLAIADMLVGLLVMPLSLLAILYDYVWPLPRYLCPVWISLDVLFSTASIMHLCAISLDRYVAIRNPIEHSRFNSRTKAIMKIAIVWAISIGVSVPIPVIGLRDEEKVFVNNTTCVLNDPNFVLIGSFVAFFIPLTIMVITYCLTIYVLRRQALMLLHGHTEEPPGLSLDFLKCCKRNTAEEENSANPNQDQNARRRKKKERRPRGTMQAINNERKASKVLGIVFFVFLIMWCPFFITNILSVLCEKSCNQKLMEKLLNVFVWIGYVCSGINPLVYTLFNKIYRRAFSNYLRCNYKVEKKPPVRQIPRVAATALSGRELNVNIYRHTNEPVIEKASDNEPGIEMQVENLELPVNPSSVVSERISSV

D(3) dopamine receptor = D(3) dopamine receptor (Homo sapiens, UniProt P35462)
Description: Displacement of [3H]spiperone from human dopamine D3 receptor

D(1A) dopamine receptor = D(1A) dopamine receptor (Homo sapiens, UniProt P21728)
Sequence of D(1A) dopamine receptor (P21728 whole entry): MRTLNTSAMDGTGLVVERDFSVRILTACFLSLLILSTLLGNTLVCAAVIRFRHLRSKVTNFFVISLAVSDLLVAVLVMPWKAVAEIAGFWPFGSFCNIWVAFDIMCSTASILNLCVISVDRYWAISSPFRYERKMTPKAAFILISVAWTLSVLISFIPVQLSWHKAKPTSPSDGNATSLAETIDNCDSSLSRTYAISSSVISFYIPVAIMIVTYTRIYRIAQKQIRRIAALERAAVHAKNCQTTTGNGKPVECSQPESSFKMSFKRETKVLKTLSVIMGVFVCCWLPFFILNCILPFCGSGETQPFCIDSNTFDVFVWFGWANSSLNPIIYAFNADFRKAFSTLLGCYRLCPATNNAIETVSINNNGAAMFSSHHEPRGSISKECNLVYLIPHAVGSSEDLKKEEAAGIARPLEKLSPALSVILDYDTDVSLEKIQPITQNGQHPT
Description: Displacement of [3H]SCH23390 from human dopamine D1 receptor

Sequence of 5-hydroxytryptamine receptor 2A (P28223 whole entry): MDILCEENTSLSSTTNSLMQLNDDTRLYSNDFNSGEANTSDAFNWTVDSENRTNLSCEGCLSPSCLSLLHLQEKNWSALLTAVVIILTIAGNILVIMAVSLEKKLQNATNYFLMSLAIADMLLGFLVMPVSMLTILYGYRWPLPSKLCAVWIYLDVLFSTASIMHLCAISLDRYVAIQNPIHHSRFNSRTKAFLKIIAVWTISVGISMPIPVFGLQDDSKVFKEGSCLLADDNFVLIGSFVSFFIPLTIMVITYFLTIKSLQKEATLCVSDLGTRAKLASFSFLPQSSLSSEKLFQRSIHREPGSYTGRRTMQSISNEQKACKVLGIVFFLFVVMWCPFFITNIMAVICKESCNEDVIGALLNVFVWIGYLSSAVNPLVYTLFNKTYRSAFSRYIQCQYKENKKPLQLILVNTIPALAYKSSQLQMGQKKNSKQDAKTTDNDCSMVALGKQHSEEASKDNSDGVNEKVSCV
Sequence of D(3) dopamine receptor (P35462 whole entry): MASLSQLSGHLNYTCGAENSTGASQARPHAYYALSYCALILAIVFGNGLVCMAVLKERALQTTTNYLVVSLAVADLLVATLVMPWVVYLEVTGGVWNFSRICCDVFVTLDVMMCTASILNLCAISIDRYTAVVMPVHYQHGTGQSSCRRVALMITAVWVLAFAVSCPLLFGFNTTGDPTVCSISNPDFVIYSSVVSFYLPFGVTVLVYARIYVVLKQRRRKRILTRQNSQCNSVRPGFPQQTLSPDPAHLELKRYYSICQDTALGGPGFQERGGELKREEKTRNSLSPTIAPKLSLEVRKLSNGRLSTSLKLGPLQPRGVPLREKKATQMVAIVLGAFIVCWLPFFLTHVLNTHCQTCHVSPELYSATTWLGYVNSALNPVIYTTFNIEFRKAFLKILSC
Sequence of D(2) dopamine receptor (Homo sapiens) (P14416 whole entry): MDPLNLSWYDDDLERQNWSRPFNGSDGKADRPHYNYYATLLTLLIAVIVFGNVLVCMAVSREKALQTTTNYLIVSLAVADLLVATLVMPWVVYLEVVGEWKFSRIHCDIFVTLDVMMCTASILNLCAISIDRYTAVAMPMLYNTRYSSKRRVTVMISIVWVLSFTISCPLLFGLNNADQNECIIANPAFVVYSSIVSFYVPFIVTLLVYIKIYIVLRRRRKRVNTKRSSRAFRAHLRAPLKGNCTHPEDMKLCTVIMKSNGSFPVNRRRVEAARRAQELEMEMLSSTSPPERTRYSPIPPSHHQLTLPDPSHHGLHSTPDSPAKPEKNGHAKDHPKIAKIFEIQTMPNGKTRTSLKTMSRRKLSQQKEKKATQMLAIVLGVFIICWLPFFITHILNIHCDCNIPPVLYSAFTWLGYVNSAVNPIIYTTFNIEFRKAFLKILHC

SMILES | Ki [1] [nM] | Ratio pKi (Homo sapiens) | inhibition [2] [%] | Ki [3] [nM] | Ki (D(3) dopamine receptor) [nM] | Ki (D(1A) dopamine receptor) [nM]
O=C1CC(CN2CCC(c3noc4cc(F)ccc34)CC2)Cc2ncncc21 (stereo not drawn) | 23.4 | 1.12 |  | 501 | 282 | 135
CNc1ncc2c(n1)CC(CN1CCC(c3noc4cc(F)ccc34)CC1)CC2=O (stereo not drawn) | 2.4 | 1.18 |  | > 10000 | 200 | 42.7
CSc1ncc2c(n1)CC(CN1CCC(c3noc4cc(F)ccc34)CC1)CC2=O (stereo not drawn) | 4.57 |  |  | > 10000 | 44.7 | 
O=C1CC(CN2CCC(c3noc4cc(F)ccc34)CC2)Cc2nc(-c3ccccc3)ncc21 (stereo not drawn) | 126 | 0.92 |  |  |  | 

The next lines start with the values.

Ki [1] [nM] | Ratio pKi (Homo sapiens) | inhibition [2] [%] | Ki [3] [nM] | Ki (D(3) dopamine receptor) [nM] | Ki (D(1A) dopamine receptor) [nM] | SMILES
6.46 | 1.23 |  |  |  |  | CNc1ncc2c(n1)CC(CN1CCC(C(=O)c3ccc(F)cc3)CC1)CC2=O (stereo not drawn)
102 |  | < 60 |  |  |  | CSc1ncc2c(n1)CC(CN1CCC(C(=O)c3ccc(F)cc3)CC1)CC2=O (stereo not drawn)
309 | 1.05 |  |  |  |  | O=C1CC(CN2CCC(C(=O)c3ccc(F)cc3)CC2)Cc2ncncc21 (stereo not drawn)
631 |  | < 60 |  |  |  | O=C1CC(CN2CCC(C(=O)c3ccc(F)cc3)CC2)Cc2nc(-c3ccccc3)ncc21 (stereo not drawn)
